Laboratory results: patent US20250250269A1, “HETEROCYCLIC GLP-1 AGONISTS” (Gasherbrum Bio, Inc., priority 2022, published 2025)

Target: T1, GLP-1 Receptor (Homo sapiens, UniProt P43220)
T1 construct: host or cells: HEK293/CRE-Luc (HEK293/GLP1R/CRE-LUC)
Assay: GLP-1R agonist cAMP stimulation assay (HEK293/GLP1R/CRE-LUC cells, Cisbio cAMP dynamic 2 kit)
Format: cell-based
Settings: HEK293/CRE-Luc cells stably expressing the GLP-1 Receptor, 30 min at 37° C.
Protocol: Activation of GLP-1 receptor is known to stimulate cyclic AMP (cAMP) production in cells which indicates primary coupling to the Gas subunit of the G protein heterotrimeric complex.
To optimize functional activity directed toward Gas coupling, a HEK293/CRE-Luc cell line developed by HDB stably expressing the GLP-1 Receptor was used. 200× concentration of compound working solutions were prepared (Agilent Technologies Bravo) with ½ log serial dilution in 384-well Echo LDV plate (Labcyte, Cat #LP-0200). […] 200× concentration of compound working solutions were moved to 384-well white low volume plate (Greiner, Cat #784075) using Labcyte ECHO550. 1×10^5 cells/mL HEK293/GLP1R/CRE-LUC (HD Biosciences) cell suspensions prepared with assay buffer [DPBS containing 0.5 mM IBMX (Sigma, Cat #15879) and 0.1% BSA (GENVIEW, Cat #FA016-100g)], 10 μL cell suspensions were added to each well of previous generated assay plate which already contains […] compound at 200×concentration using ThermoFisher Multidrop Combi (1000 cells/well). Seal the plate and incubate at 37° C. with 5% CO2 for 30 min.
After incubation the cAMP assay signal was generated using cAMP dynamic 2 Kit (Cisbio). 5 μL cAMP-d2 working solution was added to each well, followed with 5 μL Anti-cAMP antibody-cryptate working solution added to each well using ThermoFisher Multidrop Combi. Incubate at room temperature for 1 hour protected from light. Read the fluorescence at 665 and 615 nm with Reader PerkinElmer EnVision.

T1 sequence (P43220 24-463, species assumed): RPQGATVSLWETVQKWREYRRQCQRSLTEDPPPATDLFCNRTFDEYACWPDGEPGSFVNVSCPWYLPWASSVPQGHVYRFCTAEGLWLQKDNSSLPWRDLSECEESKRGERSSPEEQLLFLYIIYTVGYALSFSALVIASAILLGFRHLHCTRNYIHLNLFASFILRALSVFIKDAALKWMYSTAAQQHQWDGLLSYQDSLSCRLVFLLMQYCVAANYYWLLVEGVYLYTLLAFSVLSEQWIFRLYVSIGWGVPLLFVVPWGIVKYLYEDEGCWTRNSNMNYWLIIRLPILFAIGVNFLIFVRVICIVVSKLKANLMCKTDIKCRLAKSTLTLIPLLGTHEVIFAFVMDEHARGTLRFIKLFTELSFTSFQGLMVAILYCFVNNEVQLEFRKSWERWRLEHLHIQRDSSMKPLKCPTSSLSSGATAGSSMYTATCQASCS

SMILES | EC50 [nM]
CC1(c2ccc(Cl)cc2F)Oc2cccc(C3=CCN(Cc4nc5cc(-c6noc(=O)[nH]6)cc(F)c5n4C[C@@H]4CCO4)CC3)c2O1 (stereo partly drawn) [Compound 39, 3-(2-((4-(2-(4-chloro-2-fluorophenyl)-2-methylbenzo[d][1,3]dioxol-4-yl)-3,6-dihydropyridin-1(2H)-yl)methyl)-7-fluoro-1-(((S)-oxetan-2-yl)methyl)-1H-benzo[d]imidazol-5-yl)-1,2,4-oxadiazol-5(4H)-one] | 1 to 100
O=C(O)c1cc2nc(CN3CC=C(c4ccc(F)c(OCc5ccc(Cl)cc5F)c4)CC3)n(C[C@@H]3CCO3)c2cn1 [Compound 30, (S)-2-((4-(3-((4-chloro-2-fluorobenzyl)oxy)-4-fluorophenyl)-3,6-dihydropyridin-1(2H)-yl)methyl)-3-(oxetan-2-ylmethyl)-3H-imidazo[4,5-c]pyridine-6-carboxylic acid] | 1 to 100
CC1(c2ccc(F)cc2F)Oc2cccc(C3CCN(Cc4nc5cc(-c6nnc(C(F)(F)F)[nH]6)ncc5n4C[C@@H]4CCO4)CC3)c2O1 (stereo partly drawn) [Compound 54, 4-[2-(2,4-difluorophenyl)-2-methyl-2H-1,3-benzodioxol-4-yl]-1-[(3-{[(2S)-oxetan-2-yl]methyl}-6-[5-(trifluoromethyl)-4H-1,2,4-triazol-3-yl]-3H-imidazo[4,5-c]pyridin-2-yl)methyl]piperidine] | < 1
C[C@]1(c2ccc(Cl)cc2F)Oc2cccc(C3CCN(Cc4nc5cc(C(=O)O)ncc5n4C[C@@H]4CCO4)CC3)c2O1 [Compound 23, 2-((4-((S)-2-(4-chloro-2-fluorophenyl)-2-methylbenzo[d][1,3]dioxol-4-yl)piperidin-1-yl)methyl)-3-(((S)-oxetan-2-yl)methyl)-3H-imidazo[4,5-c]pyridine-6-carboxylic acid] | < 1
C[C@]1(c2ccc(Cl)cc2F)Oc2cccc(C3=CCN(Cc4nc5cc(-c6nnc(C(F)(F)F)[nH]6)ncc5n4C[C@@H]4CCO4)CC3)c2O1 [Compound 44, 2-((4-((S)-2-(4-chloro-2-fluorophenyl)-2-methylbenzo[d][1,3]dioxol-4-yl)-3,6-dihydropyridin-1(2H)-yl)methyl)-3-(((S)-oxetan-2-yl)methyl)-6-(5-(trifluoromethyl)-4H-1,2,4-triazol-3-yl)-3H-imidazo[4,5-c]pyridine] | < 1
O=C1CN(Cc2nc3cc(-c4nnc(C(F)(F)F)[nH]4)ncc3n2C[C@@H]2CCO2)CCN1c1ccc(F)c(OCc2ccc(Cl)cc2F)c1 [Compound 51, 1-{3-[(4-chloro-2-fluorophenyl)methoxy]-4-fluorophenyl}-4-[(3-{[(2S)-oxetan-2-yl]methyl}-6-[5-(trifluoromethyl)-4H-1,2,4-triazol-3-yl]-3H-imidazo[4,5-c]pyridin-2-yl)methyl]piperazin-2-one] | < 1
C[C@]1(c2ccc(Cl)cn2)Oc2cccc([C@H]3CCN(Cc4nc5cc(-c6nnc(C(F)(F)F)[nH]6)ncc5n4C[C@@H]4CCO4)C[C@@H]3F)c2O1 (single isomer, unassigned) [Compound 62] | < 1
FC(F)(F)Oc1cccc(COc2cccc(C3CCN(Cc4nc5cc(-c6nnc(C(F)(F)F)[nH]6)ncc5n4C[C@@H]4CCO4)CC3)n2)n1 [Compound 10, (S)-3-(oxetan-2-ylmethyl)-2-((4-(6-((6-(trifluoromethoxy)pyridin-2-yl)methoxy)pyridin-2-yl)piperidin-1-yl)methyl)-6-(5-(trifluoromethyl)-4H-1,2,4-triazol-3-yl)-3H-imidazo[4,5-c]pyridine] | < 1
Cc1ccc(COc2cccc(C3CCN(Cc4nc5cc(-c6nnc(C(F)(F)F)[nH]6)ncc5n4C[C@@H]4CCO4)CC3)n2)c(OC(F)F)n1 [Compound 15, (S)-2-((4-(6-((2-(difluoromethoxy)-6-methylpyridin-3-yl)methoxy)pyridin-2-yl)piperidin-1-yl)methyl)-3-(oxetan-2-ylmethyl)-6-(5-(trifluoromethyl)-4H-1,2,4-triazol-3-yl)-3H-imidazo[4,5-c]pyridine] | < 1
C[C@]1(c2ccc(Cl)cn2)Oc2cccc(C3CCN(Cc4nc5cc(-c6noc(=O)[nH]6)cc(F)c5n4C[C@@H]4CCO4)CC3)c2O1 [Compound 37, 3-(2-((4-((S)-2-(5-chloropyridin-2-yl)-2-methylbenzo[d][1,3]dioxol-4-yl)piperidin-1-yl)methyl)-7-fluoro-1-(((S)-oxetan-2-yl)methyl)-1H-benzo[d]imidazol-5-yl)-1,2,4-oxadiazol-5(4H)-one] | 1 to 100
Fc1cc(Cl)ccc1COc1nc(C2CCN(Cc3nc4cc(-c5nnc(C(F)(F)F)[nH]5)ncc4n3C[C@@H]3CCO3)CC2)c(F)cc1F [Compound 49, 2-[(4-chloro-2-fluorophenyl)methoxy]-3,5-difluoro-6-{1-[(3-{[(2S)-oxetan-2-yl]methyl}-6-[5-(trifluoromethyl)-4H-1,2,4-triazol-3-yl]-3H-imidazo[4,5-c]pyridin-2-yl)methyl]piperidin-4-yl}pyridine] | < 1
FC1(F)Oc2cccc(COc3cccc(C4CCN(Cc5nc6cc(-c7nnc(C(F)(F)F)[nH]7)ncc6n5C[C@@H]5CCO5)CC4)n3)c2O1 [Compound 18, (S)-2-((4-(6-((2,2-difluorobenzo[d][1,3]dioxol-4-yl)methoxy)pyridin-2-yl)piperidin-1-yl)methyl)-3-(oxetan-2-ylmethyl)-6-(5-(trifluoromethyl)-4H-1,2,4-triazol-3-yl)-3H-imidazo[4,5-c]pyridine] | < 1

The next lines start with the values.

EC50 [nM] | SMILES
< 1 | COc1c(F)ccc(COc2cccc(C3CCN(Cc4nc5cc(-c6nnc(C(F)(F)F)[nH]6)ncc5n4C[C@@H]4CCO4)CC3)n2)c1F [Compound 3, (S)-2-((4-(6-((2,4-difluoro-3-methoxybenzyl)oxy)pyridin-2-yl)piperidin-1-yl)methyl)-3-(oxetan-2-ylmethyl)-6-(5-(trifluoromethyl)-4H-1,2,4-triazol-3-yl)-3H-imidazo[4,5-c]pyridine]
< 1 | C[C@]1(c2ccc(Cl)cn2)Oc2cccc([C@H]3CCN(Cc4nc5cc(-c6nnc(C(F)(F)F)[nH]6)cnc5n4C[C@@H]4CCO4)C[C@@H]3F)c2O1 (single isomer, unassigned) [Compound 60]
< 1 | FC(F)Oc1nc(COc2cccc(C3CCN(Cc4nc5cc(-c6nnc(C(F)(F)F)[nH]6)ncc5n4C[C@@H]4CCO4)CC3)n2)ccc1Cl [Compound 13, (S)-2-((4-(6-((5-chloro-6-(difluoromethoxy)pyridin-2-yl)methoxy)pyridin-2-yl)piperidin-1-yl)methyl)-3-(oxetan-2-ylmethyl)-6-(5-(trifluoromethyl)-4H-1,2,4-triazol-3-yl)-3H-imidazo[4,5-c]pyridine]
< 1 | Cc1c(Cl)ccc(COc2cccc(C3CCN(Cc4nc5cc(-c6nnc(C(F)(F)F)[nH]6)ncc5n4C[C@@H]4CCO4)CC3)n2)c1F [Compound 4, 2-[(4-chloro-2-fluoro-3-methylphenyl)methoxy]-6-{1-[(3-{[(2S)-oxetan-2-yl]methyl}-6-[5-(trifluoromethyl)-4H-1,2,4-triazol-3-yl]-3H-imidazo[4,5-c]pyridin-2-yl)methyl]piperidin-4-yl}pyridine]
< 1 | COCCNC(=O)c1cc2nc(CN3CCC(c4cccc5c4O[C@@](C)(c4ccc(Cl)cc4F)O5)CC3)n(C[C@@H]3CCO3)c2cn1 [Compound 26, 2-((4-((S)-2-(4-chloro-2-fluorophenyl)-2-methylbenzo[d][1,3]dioxol-4-yl)piperidin-1-yl)methyl)-N-(2-methoxyethyl)-3-(((S)-oxetan-2-yl)methyl)-3H-imidazo[4,5-c]pyridine-6-carboxamide]
< 1 | O=C(O)c1cc2nc(CN3CCC(c4cccc(OCc5ccc(Cl)cc5F)n4)CC3)n(C[C@@H]3CCO3)c2cn1 [Compound 28, (S)-2-((4-(6-((4-chloro-2-fluorobenzyl)oxy)pyridin-2-yl)piperidin-1-yl)methyl)-3-(oxetan-2-ylmethyl)-3H-imidazo[4,5-c]pyridine-6-carboxylic acid]
< 1 | Cc1nnc(-c2cc(F)c3c(c2)nc(CN2CCC(c4cccc5c4O[C@@](C)(c4ccc(Cl)cc4F)O5)CC2)n3C[C@@H]2CCO2)[nH]1 [Compound 41, 2-((4-((S)-2-(4-chloro-2-fluorophenyl)-2-methylbenzo[d][1,3]dioxol-4-yl)piperidin-1-yl)methyl)-7-fluoro-5-(5-methyl-4H-1,2,4-triazol-3-yl)-1-(((S)-oxetan-2-yl)methyl)-1H-benzo[d]imidazole]
< 1 | C[C@]1(c2ccc(Cl)cn2)Oc2cccc([C@@H]3CCN(Cc4nc5cc(-c6nnc(C(F)(F)F)[nH]6)cnc5n4C[C@@H]4CCO4)C[C@H]3F)c2O1 (single isomer, unassigned) [Compound 61]
< 1 | Fc1ccc(COc2cccc(C3CCN(Cc4nc5cc(-c6nnc(C(F)(F)F)[nH]6)ncc5n4C[C@@H]4CCO4)CC3)n2)c2c1OCO2 [Compound 17, (S)-2-((4-(6-((7-fluorobenzo[d][1,3]dioxol-4-yl)methoxy)pyridin-2-yl)piperidin-1-yl)methyl)-3-(oxetan-2-ylmethyl)-6-(5-(trifluoromethyl)-4H-1,2,4-triazol-3-yl)-3H-imidazo[4,5-c]pyridine]
